Among the data in PubChem BioAssay AID1259408 (Genetic Toxicology Data Bank (GENE-TOX), 2018) are mutagenic call and call values, retold here.

Calls of active or inactive are those of the source. No rule for the calls is given here.

The data set relates to GENE-TOX genotoxicity assays, various organisms and cells. The data set is described as follows: GENE-TOX mutagenicity studies. As to conditions: for call: Assay Type: In vivo carcinogenicity studies.
The mark [1] stands for this setting: Species/Cell Type: Drosophila melanogaster, Assay Type: Sex-linked recessive lethal gene mutation, Assay Code: SRLT, Evaluation Type: Evaluation A (Pre-1980).
Setting [2] is: Species/Cell Type: Nonhuman, Assay Type: Sister-chromatid exchange (SCE) in vitro, Assay Code: SC2+D, Dose Response: With dose response, Evaluation Type: Evaluation B (Post-1980).
Where [3] appears, read: Species/Cell Type: Saccharomyces cerevisiae, Assay Type: Mitotic recombination or gene conversion, Assay Code: YEH-, Evaluation Type: Evaluation A (Pre-1980).
Where [4] appears, read: Species/Cell Type: Nonhuman, Assay Type: Sister-chromatid exchange (SCE) in vitro, Assay Code: SC2+, Evaluation Type: Evaluation B (Post-1980).
[5] abbreviates: Species/Cell Type: Arabidopsis species, Assay Type: Gene mutation, Assay Code: ARM+D, Dose Response: With dose response, Evaluation Type: Evaluation A (Pre-1980).
Setting [6] is: Species/Cell Type: Mammalian polychromatic erythrocytes, Assay Type: Micronucleus test, chromosome aberrations, Assay Code: MNTT, Evaluation Type: Evaluation B (Post-1980).
The mark [7] stands for this setting: Species/Cell Type: Bacillus subtilis (H17 vs M45), Assay Type: Rec-assay, spot test, DNA effects (bacterial DNA repair), Assay Code: REW+, Evaluation Type: Evaluation A (Pre-1980).
The mark [8] stands for this setting: Species/Cell Type: Escherichia coli polA (W3119 vs P3478), Assay Type: Rec-assay, DNA effects (bacterial DNA repair), Assay Code: RE1+, Evaluation Type: Evaluation A (Pre-1980).
[9] abbreviates: Species/Cell Type: Salmonella typhimurium (one or more of the five standard strains: TA98, TA100, TA1535, TA1537, and TA1538), Assay Type: Histidine reverse gene mutation, Ames assay, Assay Code: SAL+*, Activation: With metabolic activation, Evaluation Type: Evaluation A (Pre-1980).
Where [10] appears, read: Species/Cell Type: Salmonella typhimurium (one or more of the five standard strains: TA98, TA100, TA1535, TA1537, and TA1538), Assay Type: Histidine reverse gene mutation, Ames assay, Assay Code: SAL+, Evaluation Type: Evaluation A (Pre-1980).
[11] abbreviates: Species/Cell Type: Schizosaccharomyces pombe, Assay Type: Reverse gene mutation, Assay Code: YEZ+, Evaluation Type: Evaluation A (Pre-1980).
Where [12] appears, read: Species/Cell Type: Bacillus subtilis (H17 vs M45), Assay Type: Rec-assay, spot test, DNA effects (bacterial DNA repair), Assay Code: REW-, Evaluation Type: Evaluation A (Pre-1980).
The mark [13] stands for this setting: Species/Cell Type: Drosophila melanogaster, Assay Type: Sex-linked recessive lethal gene mutation, Assay Code: SRL+, Evaluation Type: Evaluation A (Pre-1980).

As for `NN`, the mutagenic call reads like this: under setting [1], “no conclusion”; under setting [2], “active; positive”; (Species/Cell Type: Saccharomyces cerevisiae, Assay Type: Forward gene mutation, Assay Code: YEF+, Evaluation Type: Evaluation A (Pre-1980)) “active; positive”; (Species/Cell Type: Vicia faba, Assay Type: Chromosome aberrations, Assay Code: VIC+, Evaluation Type: Evaluation A (Pre-1980)) “active; positive”. Moreover, the call (Species/Cell Type: Nonhuman, Assay Code: CCG+, Evaluation Type: Evaluation A (Pre-1980)) was “active; positive”.
Regarding `OC1c2c(c3cc4ccccc4cc3c3ccccc23)C=C[C@H]1O` (some centres undefined), under setting [2], the mutagenic call was “active; positive”.
As to `C[C@@H]1Cc2c(Cl)cc(C(=O)NC(Cc3ccccc3)C(=O)O)c(O)c2C(=O)O1` (some centres undefined), the mutagenic call (Species/Cell Type: Nonhuman, Assay Type: Sister-chromatid exchange (SCE) in vivo, Assay Code: SC3-, Evaluation Type: Evaluation B (Post-1980)) was “inactive; negative”.
Regarding `Clc1ccc(Oc2cc(Cl)c(Cl)cc2Cl)cc1`, the mutagenic call is “inactive; negative” (Species/Cell Type: Saccharomyces cerevisiae, Assay Type: Forward gene mutation, Assay Code: YEF-, Evaluation Type: Evaluation A (Pre-1980)); “inactive; negative” (Species/Cell Type: Saccharomyces cerevisiae, Assay Type: Mitotic recombination or gene conversion, Assay Code: YEC-, Evaluation Type: Evaluation A (Pre-1980)); “inactive; negative” under setting [3].
Turning to `CO[C@@H]1[C@@H](OC(N)=O)[C@@H](O)[C@H](Oc2ccc3c(O)c(NC(=O)c4ccc(O)c(CC=C(C)C)c4)c(=O)oc3c2C)OC1(C)C`, the mutagenic call under setting [4] is “active; positive”.
Consider `CCOS(=O)(=O)CCCS(=O)(=O)OCC`, for which the mutagenic call was “active; positive” under setting [5] and “active; positive” (Species/Cell Type: Hordeum vulgare (barley), Assay Type: Chromosome aberrations, Assay Code: HOC+D, Dose Response: With dose response, Evaluation Type: Evaluation A (Pre-1980)).
On to `Oc1c(Cl)cc(Cl)c(Cl)c1Cc1c(O)c(Cl)cc(Cl)c1Cl`, for which, under setting [6], the mutagenic call is reported as “no conclusion”.
As for `Cn1cnc2c1c(=O)[nH]c(=O)n2C`, the mutagenic call by setting is: (Species/Cell Type: Allium cepa, Assay Type: Chromosome aberrations, Assay Code: ALC-, Evaluation Type: Evaluation A (Pre-1980)) “inactive; negative”; (Species/Cell Type: Human lymphocytes, Assay Type: Sister-chromatid exchange (SCE) in vitro, Assay Code: SCL+, Evaluation Type: Evaluation B (Post-1980)) “active; positive”; (Species/Cell Type: Human, Assay Type: Sister-chromatid exchange (SCE) in vitro, Assay Code: SC1+, Evaluation Type: Evaluation B (Post-1980)) “active; positive”; (Species/Cell Type: Mammalian polychromatic erythrocytes, Assay Type: Micronucleus test, chromosome aberrations, Assay Code: MNT+U, Dose Response: Unconfirmed positive response, Evaluation Type: Evaluation B (Post-1980)) “active; positive”; under setting [2], “active; positive”; (Species/Cell Type: Nonhuman, Sex: Female, Assay Type: Sister-chromatid exchange (SCE) in vivo, Assay Code: SC3+DF, Dose Response: With dose response, Evaluation Type: Evaluation B (Post-1980)) “active; positive”. Besides, the mutagenic call (Species/Cell Type: Nonhuman, Sex: Male, Assay Type: Sister-chromatid exchange (SCE) in vivo, Assay Code: SC3+DM, Dose Response: With dose response, Evaluation Type: Evaluation B (Post-1980)) is “active; positive”.
Consider `COc1c(Cl)ccc(Cl)c1C(=O)O`, for which the mutagenic call was “active; positive” under setting [7]; “no conclusion” under setting [1]; “active; positive” under setting [8]; “active; positive” (Species/Cell Type: Hordeum vulgare (barley), Assay Type: Chromosome aberrations, Assay Code: HOC+, Evaluation Type: Evaluation A (Pre-1980)); “inactive; negative” (Species/Cell Type: Human diploid fibroblasts, Assay Type: Unscheduled DNA synthesis (UDS) in vitro, DNA effects, Assay Code: UDH-, Evaluation Type: Evaluation A (Pre-1980)); “inactive; negative” under setting [3]. Also, under “Species/Cell Type: Salmonella typhimurium (one or more of the five standard strains: TA98, TA100, TA1535, TA1537, and TA1538), Assay Type: Histidine reverse gene mutation, Ames assay, Assay Code: SAL-, Evaluation Type: Evaluation A (Pre-1980)”, the mutagenic call is “inactive; negative”.
On to `O=C1CCc2ccc3c(ccc4ccccc43)c21`, for which, under setting [9], the mutagenic call is “active; positive”.
With `COc1c2occc2c(OC)c2c(=O)cc(C)oc12`, where the note is “Species/Cell Type: Human, Assay Type: Sister-chromatid exchange (SCE) in vitro, Assay Code: SC1T, Evaluation Type: Evaluation A (Pre-1980)”, the mutagenic call is “no conclusion”.
`ClC1CO1` (centres undefined): the mutagenic call is “active; positive” (Species/Cell Type: Chinese hamster lung (V79) cells, Assay Type: Forward gene mutation at the HPRT or ouabain locus, Assay Code: V79+, Evaluation Type: Evaluation A (Pre-1980)); “active; positive” (Species/Cell Type: Saccharomyces cerevisiae, Assay Type: Mitotic recombination or gene conversion, Assay Code: YEC+, Evaluation Type: Evaluation A (Pre-1980)); “active; positive” under setting [10]; “active; positive” under setting [11]. Further, the call (Species/Cell Type: Nonhuman, Assay Code: CCG+L, Evaluation Type: Evaluation A (Pre-1980)) was “active; positive”.
Consider `[Cl][Bi]([Cl])[Cl]`, for which the mutagenic call under setting [12] is “inactive; negative”.
For the molecule `CS(=O)(=O)OC/C=C/COS(C)(=O)=O`, the mutagenic call under setting [13] is “active; positive”.
Turning to `CC(=O)[O-].CC(=O)[O-].CC(=O)[O-].[Sb+3]`, for the setting “Species/Cell Type: Syrian hamster embryo (SA7/SHE) cells, Assay Type: Cell transformation, viral enhanced, Assay Code: CT7+, Evaluation Type: Evaluation A (Pre-1980)”, the mutagenic call was “active; positive”.
In the case of `C=CCn1c(Cl)c(CC)c(=O)n(CC)c1=O`, under setting [1], the mutagenic call is reported as “no conclusion”.
Consider `O=[Se](O)O`, for which the mutagenic call runs as follows: under setting [7], “active; positive”; under setting [12], “inactive; negative”; (Species/Cell Type: Human lymphocytes, Assay Type: Sister-chromatid exchange (SCE) in vitro, Assay Code: SCL+D, Dose Response: With dose response, Evaluation Type: Evaluation A (Pre-1980)) “active; positive”; (Species/Cell Type: Human lymphocytes, Assay Type: Sister-chromatid exchange (SCE) in vivo, Assay Code: SCY+, Evaluation Type: Evaluation B (Post-1980)) “active; positive”; (Species/Cell Type: Human, Assay Type: Sister-chromatid exchange (SCE) in vitro, Assay Code: SC1+D, Dose Response: With dose response, Evaluation Type: Evaluation A (Pre-1980)) “active; positive”; under setting [2], “active; positive”. Moreover, the mutagenic call was “active; positive” (Species/Cell Type: Nonhuman, Assay Type: Sister-chromatid exchange (SCE) in vivo, Assay Code: SC3+D, Dose Response: With dose response, Evaluation Type: Evaluation B (Post-1980)) and “active; positive” under setting [10].
In the case of `ClN1CC1`, under setting [11], the mutagenic call is “active; positive”.
On to `CN(Cc1ccccc1)N=O`, for which the mutagenic call runs as follows: under setting [5], “active; positive”; under setting [13], “active; positive”; under setting [4], “active; positive”; under setting [9], “active; positive”; (Species/Cell Type: Salmonella typhimurium, Assay Type: Forward and reverse gene mutation, host-mediated assay, Assay Code: HMA+, Evaluation Type: Evaluation A (Pre-1980)) “active; positive”.
Consider `COCCOC(C)=O`, for which the mutagenic call (Species/Cell Type: Mammalian polychromatic erythrocytes, Assay Type: Micronucleus test, chromosome aberrations, Assay Code: MNT-, Evaluation Type: Evaluation B (Post-1980)) is “inactive; negative”.
Regarding `CC(=O)Nc1ccc(OCC(O)CNC(C)C)cc1` (centres undefined), the mutagenic call is, setting by setting: under setting [6], “no conclusion”; (Species/Cell Type: Mouse, Sex: Male, Assay Type: Sperm morphology, Assay Code: SPI-, Evaluation Type: Evaluation A (Pre-1980)) “inactive; negative”.
Regarding `OCC(Br)(Br)Br`, the mutagenic call is “inactive; negative” (Species/Cell Type: Rodents, Sex: Female, Assay Type: Dominant lethal test, Assay Code: DLTF-, Evaluation Type: Evaluation A (Pre-1980)) and “inactive; negative” (Species/Cell Type: Rodents, Sex: Male, Assay Type: Dominant lethal test, Assay Code: DLT-, Evaluation Type: Evaluation A (Pre-1980)).
As for `Cl/C=C/CCl`, under setting [10], the mutagenic call is “active; positive”.
On to `CC(C)CI`, for which the mutagenic call (Species/Cell Type: Escherichia coli polA (W3119 vs P3478), Assay Type: Rec-assay, DNA effects (bacterial DNA repair), Assay Code: RE1T, Evaluation Type: Evaluation A (Pre-1980)) was “no conclusion”.
For `c1cncc(C2=NCCC2)c1`, the mutagenic call (Species/Cell Type: Nonhuman, Assay Type: Sister-chromatid exchange (SCE) in vitro, Assay Code: SC2T, Evaluation Type: Evaluation B (Post-1980)) is on record as “no conclusion”.
With `O=Nc1ccc2c(c1)Cc1ccccc1-2`, the mutagenic call was “active; positive” under setting [8] and “active; positive” under setting [10].
As for `CCN(CCCl)CCCNc1c2ccccc2nc2c1ccc1cccnc12`, where the note is “Species/Cell Type: Chinese hamster ovary (CHO) cells, Assay Type: Forward gene mutation at the HPRT locus, Assay Code: CHO+, Evaluation Type: Evaluation B (Post-1980)”, the mutagenic call was “active; positive”.
